Source: patent US8952024B2, “Herbicidal pyrimidone derivatives” (E I du Pont de Nemours and Company, priority 2009, dated 2015)

How the values were obtained:
Type in all cases: in vivo
[1] = system: cocklebur (Xanthium strumarium); test: Test B pre-/postemergence plant response; details: for Cocklebur plant response rating (0 to 100 scale): 62 g ai/ha, postemergence, 0 is no effect, 100 is complete control; for Plant response rating, Cocklebur: Postemergence
Method in brief: (§1)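 Steps: sow seed in loam–sand soil and spray preemergence, or grow plants in peat-based medium to 1–4 leaves (2–18 cm) and spray postemergence; formulation is non-phytotoxic solvent plus surfactant; hold in greenhouse 13–15 days; score visually vs controls, 0 = no effect, 100 = complete control.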

[2] = system: goosegrass (Eleusine indica); test: Test B pre-/postemergence plant response; details: for Goosegrass plant response rating (0 to 100 scale): 62 g ai/ha, postemergence, 0 is no effect, 100 is complete control; for Plant response rating, Goosegrass: Postemergence
Method in brief: as §1

[3] = system: johnsongrass (Sorghum halepense); test: Test B pre-/postemergence plant response; details: for Johnsongrass plant response rating (0 to 100 scale): 62 g ai/ha, postemergence, 0 is no effect, 100 is complete control; for Plant response rating, Johnsongrass: Postemergence
Method in brief: as §1

kochia (Kochia scoparia) = test: Test B pre-/postemergence plant response; details: for Kochia plant response rating (0 to 100 scale): 62 g ai/ha, postemergence, 0 is no effect, 100 is complete control; for Plant response rating, Kochia: Postemergence
Method in brief: as §1

[4] = system: pigweed (Amaranthus retroflexus); test: Test B pre-/postemergence plant response; details: for Pigweed plant response rating (0 to 100 scale): 62 g ai/ha, postemergence, 0 is no effect, 100 is complete control; for Plant response rating, Pigweed: Postemergence
Method in brief: as §1

[5] = system: ragweed (common ragweed, Ambrosia elatior); test: Test B pre-/postemergence plant response; details: for Ragweed plant response rating (0 to 100 scale): 62 g ai/ha, postemergence, 0 is no effect, 100 is complete control; for Plant response rating, Ragweed: Postemergence
Method in brief: as §1

soybean (Glycine max) = test: Test B pre-/postemergence plant response; details: for Soybean plant response rating (0 to 100 scale): 62 g ai/ha, postemergence, 0 is no effect, 100 is complete control; for Plant response rating, Soybean: Postemergence
Method in brief: as §1

[6] = system: velvetleaf (Abutilon theophrasti); test: Test B pre-/postemergence plant response; details: for Velvetleaf plant response rating (0 to 100 scale): 62 g ai/ha, postemergence, 0 is no effect, 100 is complete control; for Plant response rating, Velvetleaf: Postemergence
Method in brief: as §1

[7] = system: wheat (Triticum aestivum); test: Test B pre-/postemergence plant response; details: for Wheat plant response rating (0 to 100 scale): 62 g ai/ha, postemergence, 0 is no effect, 100 is complete control; for Plant response rating, Wheat: Postemergence
Method in brief: as §1

wild oat (Avena fatua) = test: Test B pre-/postemergence plant response; details: for Oat, Wild plant response rating (0 to 100 scale): 62 g ai/ha, postemergence, 0 is no effect, 100 is complete control; for Plant response rating, Oat, Wild: Postemergence
Method in brief: as §1

[8] = system: canarygrass (Phalaris minor); test: Test B postemergence plant response; details: for Canarygrass plant response rating (0 to 100 scale): 62 g ai/ha, postemergence, 0 is no effect, 100 is complete control; for Plant response rating, Canarygrass: Postemergence
Method in brief: (§2)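 Plants grown in peat/vermiculite medium were sprayed postemergence at 2–18 cm height (1- to 4-leaf stage). After 13–15 days in the greenhouse, response was rated visually against untreated controls on a 0–100 scale (0 no effect, 100 complete control).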

[9] = system: chickweed (Stellaria media); test: Test B postemergence plant response; details: for Chickweed plant response rating (0 to 100 scale): 62 g ai/ha, postemergence, 0 is no effect, 100 is complete control; for Plant response rating, Chickweed: Postemergence
Method in brief: as §2

[10] = system: windgrass (Apera spica-venti); test: Test B postemergence plant response; details: for Windgrass plant response rating (0 to 100 scale): 62 g ai/ha, postemergence, 0 is no effect, 100 is complete control; for Plant response rating, Windgrass: Postemergence
Method in brief: as §2

[11] = 31 g ai/ha, 0 to 100 scale (0 no effect, 100 complete control)
[12] = 125 g ai/ha, scale 0 to 100 (0 no effect, 100 complete control)
[13] = 250 g ai/ha, scale 0 to 100 (0 no effect, 100 complete control), 13 to 15 days

CCCCn1c(-c2cccc(Cl)c2)ncc(C(=O)C2=C(O)CCCC2=O)c1=O [Compound 146]
Cocklebur plant response rating (0 to 100 scale) ([1]; 13 to 15 days): 25
Plant response rating, Cocklebur [1, 11]: 10
Goosegrass plant response rating (0 to 100 scale) ([2]; 13 to 15 days): 90
Plant response rating, Goosegrass [2, 11]: 75
Plant response rating, Goosegrass [2, 12]: 95
Plant response rating, Goosegrass [2, 13]: 95
Johnsongrass plant response rating (0 to 100 scale) ([3]; 13 to 15 days): 45
Plant response rating, Johnsongrass [3, 11]: 45
Plant response rating, Johnsongrass [3, 12]: 70
Plant response rating, Johnsongrass [3, 13]: 95
Kochia plant response rating (0 to 100 scale) (kochia (Kochia scoparia); 13 to 15 days): 45
Plant response rating, Kochia (kochia (Kochia scoparia); [11]): 40
Plant response rating, Kochia (kochia (Kochia scoparia); [12]): 85
Plant response rating, Kochia (kochia (Kochia scoparia); [13]): 90
Pigweed plant response rating (0 to 100 scale) ([4]; 13 to 15 days): 98
Plant response rating, Pigweed [4, 11]: 95
Plant response rating, Pigweed [4, 12]: 100
Plant response rating, Pigweed [4, 13]: 100
Ragweed plant response rating (0 to 100 scale) ([5]; 13 to 15 days): 80
Plant response rating, Ragweed [5, 11]: 65
Plant response rating, Ragweed [5, 12]: 98
Plant response rating, Ragweed [5, 13]: 98
Soybean plant response rating (0 to 100 scale) (soybean (Glycine max); 13 to 15 days): 85
Plant response rating, Soybean (soybean (Glycine max); [11]): 70
Plant response rating, Soybean (soybean (Glycine max); [12]): 98
Plant response rating, Soybean (soybean (Glycine max); [13]): 100
Velvetleaf plant response rating (0 to 100 scale) ([6]; 13 to 15 days): 85
Plant response rating, Velvetleaf [6, 11]: 80
Plant response rating, Velvetleaf [6, 12]: 98
Plant response rating, Velvetleaf [6, 13]: 100
Wheat plant response rating (0 to 100 scale) ([7]; 13 to 15 days): 0
Plant response rating, Wheat [7, 11]: 0
Plant response rating, Wheat [7, 12]: 15
Plant response rating, Wheat [7, 13]: 45
Oat, Wild plant response rating (0 to 100 scale) (wild oat (Avena fatua); 13 to 15 days): 20
Plant response rating, Oat, Wild (wild oat (Avena fatua); [11]): 0
Plant response rating, Oat, Wild (wild oat (Avena fatua); [12]): 50
Plant response rating, Oat, Wild (wild oat (Avena fatua); [13]): 70
Canarygrass plant response rating (0 to 100 scale) ([8]; 13 to 15 days): 0
Plant response rating, Canarygrass [8, 11]: 0
Plant response rating, Canarygrass [8, 12]: 5
Plant response rating, Canarygrass [8, 13]: 10
Chickweed plant response rating (0 to 100 scale) ([9]; 13 to 15 days): 95
Plant response rating, Chickweed [9, 11]: 70
Plant response rating, Chickweed [9, 12]: 98
Plant response rating, Chickweed [9, 13]: 98
Windgrass plant response rating (0 to 100 scale) ([10]; 13 to 15 days): 50
Plant response rating, Windgrass [10, 11]: 45
Plant response rating, Windgrass [10, 12]: 60
Plant response rating, Windgrass [10, 13]: 60

COCCn1c(-c2cccc(Cl)c2)ncc(C(=O)C2=C(O)CCCC2=O)c1=O [Compound 147]
Cocklebur plant response rating (0 to 100 scale) ([1]; 13 to 15 days): 75
Plant response rating, Cocklebur [1, 11]: 50
Plant response rating, Cocklebur [1, 12]: 90
Plant response rating, Cocklebur [1, 13]: 100
Goosegrass plant response rating (0 to 100 scale) ([2]; 13 to 15 days): 70
Plant response rating, Goosegrass [2, 11]: 35
Plant response rating, Goosegrass [2, 12]: 80
Plant response rating, Goosegrass [2, 13]: 95
Johnsongrass plant response rating (0 to 100 scale) ([3]; 13 to 15 days): 40
Plant response rating, Johnsongrass [3, 11]: 15
Plant response rating, Johnsongrass [3, 12]: 60
Plant response rating, Johnsongrass [3, 13]: 60
Kochia plant response rating (0 to 100 scale) (kochia (Kochia scoparia); 13 to 15 days): 75
Plant response rating, Kochia (kochia (Kochia scoparia); [11]): 40
Plant response rating, Kochia (kochia (Kochia scoparia); [12]): 80
Plant response rating, Kochia (kochia (Kochia scoparia); [13]): 100
Pigweed plant response rating (0 to 100 scale) ([4]; 13 to 15 days): 95
Plant response rating, Pigweed [4, 11]: 85
Plant response rating, Pigweed [4, 12]: 100
Plant response rating, Pigweed [4, 13]: 100
Ragweed plant response rating (0 to 100 scale) ([5]; 13 to 15 days): 75
Plant response rating, Ragweed [5, 11]: 20
Plant response rating, Ragweed [5, 12]: 90
Plant response rating, Ragweed [5, 13]: 98
Soybean plant response rating (0 to 100 scale) (soybean (Glycine max); 13 to 15 days): 60
Plant response rating, Soybean (soybean (Glycine max); [11]): 15
Plant response rating, Soybean (soybean (Glycine max); [12]): 65
Plant response rating, Soybean (soybean (Glycine max); [13]): 85
Velvetleaf plant response rating (0 to 100 scale) ([6]; 13 to 15 days): 80
Plant response rating, Velvetleaf [6, 11]: 60
Plant response rating, Velvetleaf [6, 12]: 95
Plant response rating, Velvetleaf [6, 13]: 100
Wheat plant response rating (0 to 100 scale) ([7]; 13 to 15 days): 5
Plant response rating, Wheat [7, 11]: 0
Plant response rating, Wheat [7, 12]: 5
Plant response rating, Wheat [7, 13]: 10
Oat, Wild plant response rating (0 to 100 scale) (wild oat (Avena fatua); 13 to 15 days): 10
Plant response rating, Oat, Wild (wild oat (Avena fatua); [11]): 5
Plant response rating, Oat, Wild (wild oat (Avena fatua); [12]): 20
Plant response rating, Oat, Wild (wild oat (Avena fatua); [13]): 45
Canarygrass plant response rating (0 to 100 scale) ([8]; 13 to 15 days): 0
Plant response rating, Canarygrass [8, 11]: 0
Plant response rating, Canarygrass [8, 12]: 5
Plant response rating, Canarygrass [8, 13]: 5
Chickweed plant response rating (0 to 100 scale) ([9]; 13 to 15 days): 90
Plant response rating, Chickweed [9, 11]: 70
Plant response rating, Chickweed [9, 12]: 98
Plant response rating, Chickweed [9, 13]: 98
Windgrass plant response rating (0 to 100 scale) ([10]; 13 to 15 days): 50
Plant response rating, Windgrass [10, 11]: 10
Plant response rating, Windgrass [10, 12]: 55
Plant response rating, Windgrass [10, 13]: 70
